The text below walks through data of PubChem BioAssay (NCI).

What all share (assay): inhibition of tumour cell growth, NCI panel, 48 h
Experiment [1] has as its system PC-3 prostate.
Experiment [2] has as its system SF-539 CNS.
Experiment [3] concerns OVCAR-5 ovarian.
In experiment [4] the test system is M14 melanoma.
The subject of experiment [5] is CCRF-CEM leukemia.
The test system of experiment [6] is SK-MEL-28 melanoma.
Experiment [7] has as its system IGROV1 ovarian.
Experiment [8] has as its system EKVX NSCLC.
Experiment [9] has as its system UACC-62 melanoma.
The test system of experiment [10] is MOLT-4 leukemia.

SMILES strings stand for the structures. Several values for one entry are separate records, joined by “and”; a condition that tells them apart may be missing. Equal entries are not always repeated.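 48-hour exposure; five concentrations; linearly interpolated endpoints. At the GI50, growth is halved. Definition used: TGI = concentration required for complete inhibition of growth.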

Take `N#Cc1c(N)c(C#N)c2c(c1-c1ccc(Cl)cc1)COc1ccc(F)cc1-2`: the GI50 in experiment [1] was above 50 µM; in [2], 28.2 µM; in experiment [3] it was 48.6 µM; in experiment [4] it was 16.7 µM; in [5], above 50 µM; in experiment [6] it was above 50 µM. The GI50 in experiment [7] is 6.24 µM; in experiment [8], 12.4 µM; in experiment [9], 46.4 µM; in experiment [10] it was above 50 µM. For the same compound, the TGI in experiment [1], in experiment [2], in experiment [3], in experiment [4], in experiment [5] and in [6] was above 50 µM throughout. For the same compound, the TGI in experiment [7] is 30.5 µM; in experiment [8] it was above 50 µM; in experiment [9] it was above 50 µM; in experiment [10] it was above 50 µM.

With `O=C1C(Br)=CC2(C=C1Br)CCNc1c(O)c3c4c(c12)=NCCC=4C=N3`, the TGI in experiment [1] is 0.993 µM; in [2] it was 0.557 µM; in experiment [3], 1.28 µM; in experiment [4], 0.212 µM; in experiment [5] it was 0.0734 µM; in experiment [6] it was 0.416 µM. Moreover, the TGI in experiment [7] came to 0.42 µM; in experiment [8], 0.521 µM; in experiment [9], 0.233 µM; in experiment [10], 0.11 µM.

With `COc1cc(/C=C/c2ccccn2)cc(OC)c1OC`, the TGI in experiment [1], in experiment [2], in experiment [3], in [4], in [5] and in experiment [6] was above 10 µM in each case. Moreover, the TGI in [7], in experiment [8], in experiment [9] and in experiment [10] was above 10 µM each time.

As for `COc1ccc(/C=C2\CCC(Cc3ccccc3)(CN(C)C)C2=O)cc1` (stereo not given), the TGI in [1] is above 100 µM; in [2], above 100 µM; in [3] it was above 100 µM; in experiment [4], 66.2 µM; in experiment [5] it was 72.3 µM; in [6], above 100 µM. Besides, the TGI was above 100 µM in [7], above 100 µM in experiment [8], above 76.9 µM in [9] and above 81.2 µM in [10].

For the compound `O=C(/C=C/c1ccccc1)OCC1=C[C@@H](O)[C@@H]2C=CO[C@@H](OC3OC(CO)C(O)C(O)C3O)[C@H]12` (stereo not given in full), the TGI in experiment [1], in experiment [2], in experiment [3], in experiment [4], in experiment [5] and in experiment [6] was above 100 µM throughout. Besides, the TGI in [7], in experiment [8], in experiment [9] and in experiment [10] was above 100 µM in each case.

On to `COC(=O)C1(C)CCCC2(C)c3cc(OC)ccc3C(=O)C(Br)C12` (stereo not given), for which the TGI was above 10 µM in [1]; above 10 µM in [2]; above 10 µM in [3]; above 10 µM in experiment [4]; 6.59 µM in [5]; above 10 µM in experiment [6]. Further, the TGI in [7] was above 10 µM; in experiment [8], above 10 µM; in [9] it was above 10 µM; in experiment [10], 4.17 µM.

Consider `O=c1[nH]c(SCc2ccccc2[N+](=O)[O-])nc2nc[nH]c12`, for which the TGI in [1], in experiment [2], in experiment [3], in experiment [4], in experiment [5] and in experiment [6] was above 100 µM throughout. Also, the TGI in experiment [7], in [8], in experiment [9] and in experiment [10] was above 100 µM in each case. For the same compound, the GI50 in experiment [5] is > 100 µM and 29.6 µM.

For `Nc1ccc(C(=O)Nc2ccccc2N)cc1`, the TGI is above 100 µM in [1]; above 100 µM in [2]; above 82.7 µM in experiment [3]; above 100 µM in [4]; above 82 µM in experiment [5]; above 100 µM in experiment [6]. Besides, the TGI in experiment [7] is above 100 µM; in experiment [8], above 100 µM; in experiment [9], 39.7 µM; in experiment [10], 73.7 µM.

As to `COC(=O)[C@]12CC[C@@H](C)[C@H](C)[C@@H]1C1=CC[C@@H]3[C@@]4(C)CC(=O)[C@H](O)[C@@](C)(CO)[C@@H]4C(=O)C[C@@]3(C)[C@]1(C)CC2`, the GI50 in [1] was 0.931 µM; in [2], 16.2 µM; in experiment [3], 20.8 µM; in experiment [4], 11.9 µM; in experiment [5], 3.38 µM; in experiment [6], 14.6 µM. Moreover, the GI50 in experiment [7] was 12.7 µM; in experiment [8], 14.8 µM; in experiment [9], 3.25 µM; in experiment [10], 10.3 µM. The TGI was determined as 15 µM in [1]; 31.6 µM in experiment [2]; 37.6 µM in [3]; 25.1 µM in experiment [4]; 28.7 µM in experiment [5]; 31.9 µM in experiment [6]. The TGI turned out to be 28.1 µM in [7], 29.2 µM in [8], 20.8 µM in experiment [9] and 27.1 µM in experiment [10].

As to `Oc1cccc(-c2nc(-c3ccccc3)[nH]c2-c2ccncc2)c1`, the GI50 was above 20.8 µM in experiment [1]; 17.6 µM in [2]; 16.9 µM in [3]; 1.71 µM in experiment [4]; 17.1 µM in experiment [5]; 2.03 µM in experiment [6]. The GI50 in experiment [7] is 10.4 µM; in experiment [8], above 25 µM; in experiment [9], 1.59 µM; in experiment [10], 24.9 µM. For the same compound, the TGI was above 25 µM in experiment [1]; above 25 µM in experiment [2]; above 25 µM in experiment [3]; 12.6 µM in experiment [4]; above 25 µM in experiment [5]; above 18.5 µM in experiment [6]. The TGI in [7], in [8], in experiment [9] and in experiment [10] was above 25 µM throughout.

For the compound `CNCCN(C)Cc1cn[nH]c1-c1ccc(OC2CC(OCCC3CCOCC3)C2)cc1` (stereo not given), the GI50 in [1] is above 63.4 µM; in [2], above 100 µM; in [3], above 100 µM; in experiment [4], above 66.3 µM; in experiment [5], above 100 µM; in [6], above 67.9 µM. The GI50 in experiment [7] is 48.5 µM; in experiment [8] it was above 77.7 µM; in experiment [9], 39.1 µM; in experiment [10], above 80.2 µM. Further, the TGI in [1], in experiment [2], in [3], in experiment [4], in experiment [5] and in [6] was above 100 µM each time. Also, the TGI in [7], in experiment [8], in experiment [9] and in experiment [10] was above 100 µM throughout.

Consider `O=C(c1ccco1)c1c(C(F)(F)F)n([O-])c2ccc(F)cc2[n+]1=O`, for which the GI50 in experiment [1] was 1.01 µM; in experiment [2], 2.55 µM; in experiment [3], 5.97 µM; in experiment [4], 1.48 µM; in experiment [5], 0.4 µM; in experiment [6], 1.46 µM. Also, the GI50 in [7] was 1.23 µM; in experiment [8], 2.95 µM; in experiment [9], 1.21 µM; in experiment [10], 0.219 µM. The TGI in experiment [1] was determined as 2.47 µM; in experiment [2], 8.32 µM; in experiment [3], 17.5 µM; in experiment [4], 2.93 µM; in [5], 2.97 µM; in experiment [6], 2.79 µM. The TGI in experiment [7] stood at 2.78 µM; in experiment [8] it was 8.09 µM; in [9] it was 2.55 µM; in [10], 0.54 µM.

As to `Cc1cc2c(cc1Cl)SC(C(=O)c1ccc(Cl)c(Cl)c1)NS2(=O)=O` (stereo not given), the GI50 in experiment [1] is 32.5 µM; in experiment [2], 19.8 µM; in experiment [3], 49.2 µM; in experiment [4], 43.9 µM; in experiment [5], 27.9 µM; in experiment [6], 30.4 µM. In addition, the GI50 is 40.9 µM in [7], 37.5 µM in [8], 22 µM in experiment [9] and 29.5 µM in experiment [10]. The TGI was above 100 µM in experiment [1]; 42.2 µM in experiment [2]; above 100 µM in [3]; above 100 µM in [4]; 61.2 µM in experiment [5]; 88.9 µM in [6]. In addition, the TGI in experiment [7] was above 100 µM; in experiment [8], above 100 µM; in [9], 42.9 µM; in experiment [10], 64.4 µM.

Take `CC12CC(=O)C3C(CCC4=CC(=O)CCC43C)C1CC=C2CC(=O)O` (stereo not given): the TGI in [1], in experiment [2], in experiment [3], in experiment [4], in [5] and in experiment [6] was above 100 µM throughout. In addition, the TGI in [7], in [8], in experiment [9] and in [10] was above 100 µM each time.

`COC1=CC2CCN3Cc4cc5c(cc4C(C1O)C23)OCC5` (stereo not given): the GI50 in experiment [1] was 2.67 µM; in experiment [2] it was 3.95 µM; in experiment [3] it was 2.48 µM; in experiment [4], 3 µM; in [6] it was 3.46 µM; in experiment [7], 4.59 µM. The figures for the GI50 in experiment [8], in experiment [9] and in experiment [10] were 4.66 µM, 2.05 µM and 2.11 µM, respectively. For the same compound, the TGI in [1] was above 47 µM; in experiment [2] it was 21.3 µM; in [3], 22.8 µM; in experiment [4] it was 19.3 µM; in experiment [5] it was above 100 µM; in [6], above 24.2 µM. In addition, the TGI in experiment [7] is above 24.8 µM; in [8], 32.6 µM; in experiment [9], 11.1 µM; in experiment [10] it was above 100 µM.

As for `O=C1/C(=C/c2ccccc2[N+](=O)[O-])COc2ccc(O)c(O)c21`, the GI50 in experiment [1] was 0.814 µM; in experiment [2], 1.21 µM; in experiment [3], 1.69 µM; in experiment [4] it was 0.797 µM; in [5], 0.365 µM; in experiment [6] it was 1.33 µM. Further, the GI50 in experiment [7] is 0.73 µM; in experiment [8], 2.51 µM; in [9], 0.864 µM; in [10] it was 0.431 µM. The TGI was 4.89 µM in experiment [1]; 2.99 µM in [2]; 3.66 µM in experiment [3]; 2.89 µM in experiment [4]; above 50 µM in experiment [5]; 2.97 µM in [6]. Besides, the TGI in [7] is 2.55 µM; in experiment [8], 10.8 µM; in [9] it was 2.4 µM; in experiment [10], above 21.8 µM.

For `CC(C)[C@H](C(=O)O[C@@H]1/C=C/C(=O)O[C@@H](C)CCC/C=C/[C@@H]2C[C@H](O)C[C@H]21)N(C)C`, the GI50 in experiment [1] is 10.9 µM; in [2], 10.2 µM; in [3], 20.4 µM; in experiment [4], 11.1 µM; in experiment [5], 6.05 µM; in experiment [6], 5.01 µM. Also, the GI50 was 22.8 µM in experiment [7], 8.45 µM in experiment [8], 16.8 µM in experiment [9] and 14.9 µM in [10]. Besides, the TGI in experiment [1] is above 57.8 µM; in experiment [2], 58.9 µM; in experiment [3] it was above 89.5 µM; in [4], above 63.8 µM; in experiment [5] it was 75 µM; in [6], 28 µM. Also, the TGI is above 71.3 µM in experiment [7], above 65.3 µM in [8], above 89.2 µM in experiment [9] and 42.2 µM in experiment [10].

As for `CC[C@@]1(O)C(=O)NCc2c1cc1n(c2=O)Cc2cc3c(NC(C)=O)cccc3nc2-1`, the GI50 in experiment [1], in experiment [2], in experiment [3], in [4], in [5] and in [6] was above 100 µM throughout. Besides, the GI50 in experiment [7], in experiment [8], in [9] and in experiment [10] was above 100 µM in each case. Moreover, the TGI in [1], in experiment [2], in [3], in [4], in [5] and in [6] was above 100 µM throughout. Also, the TGI in experiment [7], in experiment [8], in experiment [9] and in experiment [10] was above 100 µM in each case.
